From US20100113421A1, “NON-NUCLEOSIDE REVERSE TRANSCRIPTASE INHIBITORS” (priority 2006, published 2010)

system: HIV strain containing the Y181C mutation; experiment: Spread assay, Y181C mutant strain; type: cell-based; settings: Human immunodeficiency virus 1; spread assay, 10% FBS, Y181C mutant strain; read-out: CIC95
Description: Assays for the inhibition of acute HIV-1 infection of T-lymphoid cells (alternatively referred to herein as the “spread assay”) were conducted in accordance with Vacca, J. P. et al., Proc. Natl. Acad. Sci. USA 1994, 91: 4096. The assays (using 10% FBS) tested for inhibition of wild type HIV-1 and of HIV strains containing the Y181C or K103N mutation. […] (Note that the compound of Example 6 was tested only up to a 833 nM concentration and the CIC95 value was determined to be >833 nM. The compound of Example 78 was not tested in the Y1818C assay.) The compounds of Examples 1 to 119 (including Examples 70A and 70B) had CIC95 values of less than 1000 nanomolar in the assay employing the K103N mutant strain. In an analogous assay employing a mutant strain containing both the K103N and Y181C mutations, the compounds of Examples 70A, 70B and 78-115 had CIC95 values of less than 1000 nanomolar.

SMILES | IC95 [µM]
Cc1c(C(=O)N(C)Cc2ccc(Cl)cc2Cl)[nH]c(C(N)=O)c1S(=O)(=O)c1ccccc1 [Example 1, N-(2,4-Dichlorobenzyl)-N,3-dimethyl-4-(1-phenylsulfonyl)-1H-pyrrole-2,5-dicarboxamide] | < 8
Cc1c(C(=O)N(C)Cc2ccc(Cl)cc2Cl)[nH]c(C(N)=O)c1S(=O)(=O)c1cc(Cl)cc(Cl)c1 [Example 2, N-(2,4-Dichlorobenzyl)-4-[(3,5-dichlorophenyl)sulfonyl]-N,3-dimethyl-1H-pyrrole-2,5-dicarboxamide] | < 8
Cc1cc(C)cc(S(=O)(=O)c2c(C(N)=O)[nH]c(C(=O)N(C)Cc3ccccc3)c2C)c1 [Example 3, N-Benzyl-N,3-dimethyl-4-(3,5-dimethylphenylsulfonyl)-1H-pyrrole-2,5-dicarboxamide] | < 8
Cc1c(C(=O)N(C)Cc2ccc(F)cc2Cl)[nH]c(C(N)=O)c1S(=O)(=O)c1ccccc1 [Example 4, N-(2-Chloro-4-fluorobenzyl)-N,3-dimethyl-4-(phenylsulfonyl)-1H-pyrrole-2,5-dicarboxamide] | < 8
Cc1c(C(=O)N(C)Cc2ccccc2Cl)[nH]c(C(N)=O)c1S(=O)(=O)c1cccc2ccccc12 [Example 5, N-(2-Chlorobenzyl)-N,3-dimethyl-4-(1-naphthylsulfonyl)-1H-pyrrole-2,5-dicarboxamide] | < 8
Cc1c(C(=O)N(C)Cc2ccccc2F)[nH]c(C(N)=O)c1S(=O)(=O)c1ccccc1 [Example 7, N-(2-fluorobenzyl)-N,3-dimethyl-4-(phenylsulfonyl)-1H-pyrrole-2,5-dicarboxamide] | < 8
Cc1c(C(=O)N(C)Cc2ccccc2Cl)[nH]c(C(N)=O)c1S(=O)(=O)c1ccccc1 [Example 8, N-(2-chlorobenzyl)-N,3-dimethyl-4-(phenylsulfonyl)-1H-pyrrole-2,5-dicarboxamide] | < 8
Cc1c(C(=O)N(C)Cc2ccccc2Br)[nH]c(C(N)=O)c1S(=O)(=O)c1ccccc1 [Example 9, N-(2-bromobenzyl)-N,3-dimethyl-4-(phenylsulfonyl)-1H-pyrrole-2,5-dicarboxamide] | < 8
Cc1c(C(=O)N(C)Cc2cccc(Cl)c2)[nH]c(C(N)=O)c1S(=O)(=O)c1ccccc1 [Example 10, N-(3-chlorobenzyl)-N,3-dimethyl-4-(phenylsulfonyl)-1H-pyrrole-2,5-dicarboxamide] | < 8
Cc1c(C(=O)N(C)Cc2ccc(Br)cc2)[nH]c(C(N)=O)c1S(=O)(=O)c1ccccc1 [Example 11, N-(4-bromobenzyl)-N,3-dimethyl-4-(phenylsulfonyl)-1H-pyrrole-2,5-dicarboxamide] | < 8
Cc1c(C(=O)N(C)Cc2ccc(Cl)cc2F)[nH]c(C(N)=O)c1S(=O)(=O)c1ccccc1 [Example 12, N-(4-chloro-2-fluorobenzyl)-N,3-dimethyl-4-(phenylsulfonyl)-1H-pyrrole-2,5-dicarboxamide] | < 8
Cc1c(C(=O)N(C)Cc2cccc(Cl)c2Cl)[nH]c(C(N)=O)c1S(=O)(=O)c1ccccc1 [Example 13, N-(2,3-dichlorobenzyl)-N,3-dimethyl-4-(phenylsulfonyl)-1H-pyrrole-2,5-dicarboxamide] | < 8
Cc1c(C(=O)N(C)Cc2ccc(Cl)c(Cl)c2)[nH]c(C(N)=O)c1S(=O)(=O)c1ccccc1 [Example 14, N-(3,4-dichlorobenzyl)-N,3-dimethyl-4-(phenylsulfonyl)-1H-pyrrole-2,5-dicarboxamide] | < 8
Cc1c(C(=O)N(C)Cc2ccc(S(C)(=O)=O)cc2Cl)[nH]c(C(N)=O)c1S(=O)(=O)c1ccccc1 [Example 15, N-(2-chloro-4-methylsulfonylbenzyl)-N,3-dimethyl-4-(phenylsulfonyl)-1H-pyrrole-2,5-dicarboxamide] | < 8
Cc1c(C(=O)N(C)Cc2ccccc2F)[nH]c(C(N)=O)c1S(=O)(=O)c1cccc(F)c1 [Example 16, N-(2-fluorobenzyl)-N,3-dimethyl-4-(3-fluorophenylsulfonyl)-1H-pyrrole-2,5-dicarboxamide] | < 8
Cc1c(C(=O)N(C)Cc2ccccc2Cl)[nH]c(C(N)=O)c1S(=O)(=O)c1cccc(F)c1 [Example 17, N-(2-chlorobenzyl)-N,3-dimethyl-4-(3-fluorophenylsulfonyl)-1H-pyrrole-2,5-dicarboxamide] | < 8
Cc1c(C(=O)N(C)Cc2ccc(Cl)cc2F)[nH]c(C(N)=O)c1S(=O)(=O)c1cccc(F)c1 [Example 18, N-(4-chloro-2-fluorobenzyl)-N,3-dimethyl-4-(3-fluorophenylsulfonyl)-1H-pyrrole-2,5-dicarboxamide] | < 8
Cc1c(C(=O)N(C)Cc2ccc(Cl)cc2Cl)[nH]c(C(N)=O)c1S(=O)(=O)c1cccc(F)c1 [Example 19, N-(2,4-dichlorobenzyl)-N,3-dimethyl-4-(3-fluorophenylsulfonyl)-1H-pyrrole-2,5-dicarboxamide] | < 8
Cc1c(C(=O)N(C)Cc2ccccc2Cl)[nH]c(C(N)=O)c1S(=O)(=O)c1cccc(Cl)c1 [Example 20, N-(2-chlorobenzyl)-N,3-dimethyl-4-(3-chlorophenylsulfonyl)-1H-pyrrole-2,5-dicarboxamide] | < 8
Cc1c(C(=O)N(C)Cc2ccc(Cl)cc2Cl)[nH]c(C(N)=O)c1S(=O)(=O)c1cccc(Cl)c1 [Example 21, N-(2,4-dichlorobenzyl)-N,3-dimethyl-4-(3-chlorophenylsulfonyl)-1H-pyrrole-2,5-dicarboxamide] | < 8
Cc1c(C(=O)N(C)Cc2ccccc2)[nH]c(C(N)=O)c1S(=O)(=O)c1cccc(C(F)(F)F)c1 [Example 22, N-benzyl-N,3-dimethyl-4-(3-trifluoromethylphenylsulfonyl)-1H-pyrrole-2,5-dicarboxamide] | < 8
Cc1c(C(=O)N(C)Cc2ccc(Cl)cc2Cl)[nH]c(C(N)=O)c1S(=O)(=O)c1cccc(C(F)(F)F)c1 [Example 23, N-(2,4-dichlorobenzyl)-N,3-dimethyl-4-(3-trifluoromethylphenylsulfonyl)-1H-pyrrole-2,5-dicarboxamide] | < 8
Cc1cc(C)cc(S(=O)(=O)c2c(C(N)=O)[nH]c(C(=O)N(C)Cc3ccccc3F)c2C)c1 [Example 24, N-(2-fluorobenzyl)-N,3-dimethyl-4-(3,5-dimethylphenylsulfonyl)-1H-pyrrole-2,5-dicarboxamide] | < 8
Cc1cc(C)cc(S(=O)(=O)c2c(C(N)=O)[nH]c(C(=O)N(C)Cc3ccccc3Cl)c2C)c1 [Example 25, N-(2-chlorobenzyl)-N,3-dimethyl-4-(3,5-dimethyiphenylsulfonyl)-1H-pyrrole-2,5-dicarboxamide] | < 8
Cc1cc(C)cc(S(=O)(=O)c2c(C(N)=O)[nH]c(C(=O)N(C)Cc3ccc(Cl)cc3F)c2C)c1 [Example 26, N-(4-chloro-2-fluorobenzyl)-N,3-dimethyl-4-(3,5-dimethylphenylsulfonyl)-1H-pyrrole-2,5-dicarboxamide] | < 8
Cc1cc(C)cc(S(=O)(=O)c2c(C(N)=O)[nH]c(C(=O)N(C)Cc3ccc(Cl)cc3Cl)c2C)c1 [Example 27, N-(2,4-dichlorobenzyl)-N,3-dimethyl-4-(3,5-dimethylphenylsulfonyl)-1H-pyrrole-2,5-dicarboxamide] | < 8

same assay, conditions: spread assay, Y181C mutant strain; tested only up to a 833 nM concentration; read-out: CIC95

SMILES | IC95 [µM]
Cc1c(C(=O)N(C)Cc2ccccc2Cl)[nH]c(C(N)=O)c1S(=O)(=O)c1ccc2ccccc2c1 [Example 6, N-(2-Chlorobenzyl)-N,3-dimethyl-4-(2-naphthylsulfonyl)-1H-pyrrole-2,5-dicarboxamide] | > 0.833
